In ChEMBL document CHEMBL5029169, “Discovery and optimization of covalent EGFR T790M/L858R mutant inhibitors” (Bioorg Med Chem Lett, 2021):
Activity calls are given as the source filed them. The rule behind the calls is not given here.

Columns and labels:
[1] = biological target: T1, Epidermal growth factor receptor (Homo sapiens, UniProt P00533, L858R/T790M); assay: Inhibition of EGFR T790M/L858R double mutant (unknown origin) preincubated for 60 mins followed by substrate addition and further incubated for 60 mins in presence of ATP by IMAP-FP assay
[2] = biological target: T2, Epidermal growth factor receptor (Homo sapiens, UniProt P00533); assay: Inhibition of wild type EGFR (unknown origin) preincubated for 60 mins followed by substrate addition and further incubated for 60 mins in presence of ATP by IMAP-FP assay
[3] = biological target: T1, Epidermal growth factor receptor; assay: Inhibition of EGF-induced phosphorylation of EGFR T790M/L858R double mutant in human NCI-H1975 cells preincubated for 120 mins followed by EGF stimulation and measured after 10 mins by ELISA; format: cell-based
[4] = biological target: T2, Epidermal growth factor receptor; assay: Inhibition of EGF-induced phosphorylation of wild type EGFR in human NCI-H1975 cells preincubated for 120 mins followed by EGF stimulation and measured after 10 mins by ELISA; format: cell-based
Homo sapiens = species on record: Homo sapiens; assay: Selectivity ratio of EC50 for inhibition of EGF-induced phosphorylation of wild type EGFR in human NCI-H1975 cells to EC50 for inhibition of EGF-induced phosphorylation of EGFR T790M/L858R double mutant in human NCI-H1975 cells preincubated for 120 mins followed by EGF stimulation and measured after 10 mins by ELISA; format: cell-based; settings: time 130.0 min
[5] = Oral bioavailability in mouse; format: ADME, organism-based; settings: in vivo
[6] = biological target: Serine/threonine-protein kinase B-raf (Homo sapiens) (UniProt P15056); assay: Inhibition of BRAF (unknown origin) at 1 uM measured after 1 hr relative to control
[7] = biological target: T3, Serine/threonine-protein kinase BRSK1 (Homo sapiens) (UniProt Q8TDC3); assay: Inhibition of BRSK1 (unknown origin) at 1 uM measured after 1 hr relative to control
T3 sequence (whole entry): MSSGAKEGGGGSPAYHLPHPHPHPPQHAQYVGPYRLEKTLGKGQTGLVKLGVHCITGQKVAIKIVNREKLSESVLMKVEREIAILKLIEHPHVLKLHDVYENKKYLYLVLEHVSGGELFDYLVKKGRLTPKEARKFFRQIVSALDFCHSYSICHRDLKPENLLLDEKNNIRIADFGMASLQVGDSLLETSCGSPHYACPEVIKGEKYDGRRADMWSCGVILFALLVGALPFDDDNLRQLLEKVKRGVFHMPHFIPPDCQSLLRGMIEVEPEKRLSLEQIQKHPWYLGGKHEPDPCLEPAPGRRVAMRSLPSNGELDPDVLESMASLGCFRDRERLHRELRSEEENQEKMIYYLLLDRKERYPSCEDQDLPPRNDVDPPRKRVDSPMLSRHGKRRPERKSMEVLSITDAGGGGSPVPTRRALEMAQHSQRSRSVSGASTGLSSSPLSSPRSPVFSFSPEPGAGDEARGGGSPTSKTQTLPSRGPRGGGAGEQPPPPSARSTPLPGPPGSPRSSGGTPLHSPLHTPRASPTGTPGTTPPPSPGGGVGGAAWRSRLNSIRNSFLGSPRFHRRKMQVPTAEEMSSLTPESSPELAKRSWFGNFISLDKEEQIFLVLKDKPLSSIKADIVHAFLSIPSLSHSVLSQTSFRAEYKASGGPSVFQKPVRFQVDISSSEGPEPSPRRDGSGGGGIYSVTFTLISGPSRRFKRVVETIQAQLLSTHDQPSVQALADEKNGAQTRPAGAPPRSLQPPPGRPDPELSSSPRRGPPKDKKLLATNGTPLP

[8] = biological target: Cyclin-dependent kinase 1/cyclin B1 (Homo sapiens) (UniProt P06493+P14635); assay: Inhibition of cdk1/Cyclin B (unknown origin) at 1 uM measured after 1 hr relative to control; format: protein-complex assay
[9] = biological target: Serine/threonine-protein kinase Chk2 (Homo sapiens) (UniProt O96017); assay: Inhibition of CHEK2 (unknown origin) at 1 uM measured after 1 hr relative to control
[10] = biological target: Casein kinase I isoform gamma-2 (Homo sapiens) (UniProt P78368); assay: Inhibition of CSNK1G2 (unknown origin) at 1 uM measured after 1 hr relative to control
[11] = biological target: Dual specificity tyrosine-phosphorylation-regulated kinase 1A (Homo sapiens) (UniProt Q13627); assay: Inhibition of DYRK1A (unknown origin) at 1 uM measured after 1 hr relative to control
[12] = biological target: Receptor-type tyrosine-protein kinase FLT3 (Homo sapiens) (UniProt P36888); assay: Inhibition of FLT3 (unknown origin) at 1 uM measured after 1 hr relative to control
[13] = biological target: Glycogen synthase kinase-3 beta (Homo sapiens) (UniProt P49841); assay: Inhibition of GSK3B (unknown origin) at 1 uM measured after 1 hr relative to control
[14] = biological target: Insulin-like growth factor 1 receptor (Homo sapiens) (UniProt P08069); assay: Inhibition of IGF1R (unknown origin) at 1 uM measured after 1 hr relative to control
[15] = biological target: Dual specificity mitogen-activated protein kinase kinase 1 (Homo sapiens) (UniProt Q02750); assay: Inhibition of MAP2K1 (unknown origin) at 1 uM measured after 1 hr relative to control
[16] = biological target: Mitogen-activated protein kinase kinase kinase 9 (Homo sapiens) (UniProt P80192); assay: Inhibition of MAP3K9 (unknown origin) at 1 uM measured after 1 hr relative to control
[17] = biological target: Mitogen-activated protein kinase kinase kinase kinase 4 (Homo sapiens) (UniProt O95819); assay: Inhibition of MAP4K4 (unknown origin) at 1 uM measured after 1 hr relative to control
[18] = biological target: Mitogen-activated protein kinase 3 (Homo sapiens) (UniProt P27361); assay: Inhibition of MAPK3 (unknown origin) at 1 uM measured after 1 hr relative to control
[19] = biological target: Mitogen-activated protein kinase 8 (Homo sapiens) (UniProt P45983); assay: Inhibition of MAPK8 (unknown origin) at 1 uM measured after 1 hr relative to control
[20] = biological target: Serine/threonine-protein kinase PLK2 (Homo sapiens) (UniProt Q9NYY3); assay: Inhibition of PLK2 (unknown origin) at 1 uM measured after 1 hr relative to control
[21] = biological target: Protein kinase C alpha type (Homo sapiens) (UniProt P17252); assay: Inhibition of PRKCA (unknown origin) at 1 uM measured after 1 hr relative to control
NCI-H1975 [22] = assay: Antitumor activity against human NCI-H1975 cells xenografted in mouse model assessed as tumor growth inhibition at 30 mg/kg, po administered bid measured after 11 days relative to control; format: functional; settings: 264 h, time 11 day, read-out: TGI
[23] = Toxicity in mouse xenografted with human NCI-H1975 cells assessed as change in body weight at 30 mg/kg, po administered bid measured after 11 days; format: organism-based; settings: in vivo, 264 h, time 11 day
NCI-H1975 [24] = assay: Antitumor activity against human NCI-H1975 cells xenografted in mouse model assessed as tumor growth inhibition at 30 mg/kg, po administered qd measured after 11 days; format: functional, organism-based; settings: time 11.0 day
[25] = Inhibition of EGF-induced phosphorylation of EGFR T790M/L858R double mutant in human NCI-H1975 cells preincubated for 2 hrs followed by EGF stimulation and measured after 10 mins by ELISA; format: cell-based

T1 sequence (P00533 25-1210 T790M/L858R limits assumed): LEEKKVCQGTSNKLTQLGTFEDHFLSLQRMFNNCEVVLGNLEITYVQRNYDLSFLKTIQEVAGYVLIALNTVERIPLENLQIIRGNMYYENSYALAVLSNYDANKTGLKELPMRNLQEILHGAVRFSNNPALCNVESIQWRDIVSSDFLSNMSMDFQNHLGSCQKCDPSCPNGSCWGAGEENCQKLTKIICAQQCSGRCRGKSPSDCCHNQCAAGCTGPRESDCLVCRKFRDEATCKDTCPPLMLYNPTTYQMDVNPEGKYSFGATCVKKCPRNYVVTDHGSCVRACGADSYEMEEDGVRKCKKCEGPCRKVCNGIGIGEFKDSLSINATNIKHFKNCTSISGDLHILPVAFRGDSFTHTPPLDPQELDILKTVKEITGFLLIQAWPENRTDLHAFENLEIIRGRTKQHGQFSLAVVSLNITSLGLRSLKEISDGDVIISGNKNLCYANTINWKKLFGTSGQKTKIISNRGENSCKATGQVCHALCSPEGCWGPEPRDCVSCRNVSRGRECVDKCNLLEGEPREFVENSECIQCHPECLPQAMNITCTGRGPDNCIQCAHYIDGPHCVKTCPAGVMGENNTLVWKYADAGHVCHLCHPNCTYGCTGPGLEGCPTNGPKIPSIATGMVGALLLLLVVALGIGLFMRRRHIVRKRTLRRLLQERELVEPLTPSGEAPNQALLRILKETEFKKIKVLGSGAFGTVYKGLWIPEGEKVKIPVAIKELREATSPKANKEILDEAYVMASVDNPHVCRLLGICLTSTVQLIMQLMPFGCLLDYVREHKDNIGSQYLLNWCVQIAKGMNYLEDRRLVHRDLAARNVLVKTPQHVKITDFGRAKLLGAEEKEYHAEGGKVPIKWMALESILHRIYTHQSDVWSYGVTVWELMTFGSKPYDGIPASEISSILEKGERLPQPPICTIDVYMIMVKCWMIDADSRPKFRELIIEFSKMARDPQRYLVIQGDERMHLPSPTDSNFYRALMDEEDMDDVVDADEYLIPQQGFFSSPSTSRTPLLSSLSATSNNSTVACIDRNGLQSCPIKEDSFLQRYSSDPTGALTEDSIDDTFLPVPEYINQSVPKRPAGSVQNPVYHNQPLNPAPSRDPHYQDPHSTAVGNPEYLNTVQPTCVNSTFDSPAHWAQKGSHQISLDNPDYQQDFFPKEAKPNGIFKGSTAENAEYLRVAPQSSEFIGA
Sequence of Mitogen-activated protein kinase kinase kinase 9 (Homo sapiens) (P80192 whole entry, looked up): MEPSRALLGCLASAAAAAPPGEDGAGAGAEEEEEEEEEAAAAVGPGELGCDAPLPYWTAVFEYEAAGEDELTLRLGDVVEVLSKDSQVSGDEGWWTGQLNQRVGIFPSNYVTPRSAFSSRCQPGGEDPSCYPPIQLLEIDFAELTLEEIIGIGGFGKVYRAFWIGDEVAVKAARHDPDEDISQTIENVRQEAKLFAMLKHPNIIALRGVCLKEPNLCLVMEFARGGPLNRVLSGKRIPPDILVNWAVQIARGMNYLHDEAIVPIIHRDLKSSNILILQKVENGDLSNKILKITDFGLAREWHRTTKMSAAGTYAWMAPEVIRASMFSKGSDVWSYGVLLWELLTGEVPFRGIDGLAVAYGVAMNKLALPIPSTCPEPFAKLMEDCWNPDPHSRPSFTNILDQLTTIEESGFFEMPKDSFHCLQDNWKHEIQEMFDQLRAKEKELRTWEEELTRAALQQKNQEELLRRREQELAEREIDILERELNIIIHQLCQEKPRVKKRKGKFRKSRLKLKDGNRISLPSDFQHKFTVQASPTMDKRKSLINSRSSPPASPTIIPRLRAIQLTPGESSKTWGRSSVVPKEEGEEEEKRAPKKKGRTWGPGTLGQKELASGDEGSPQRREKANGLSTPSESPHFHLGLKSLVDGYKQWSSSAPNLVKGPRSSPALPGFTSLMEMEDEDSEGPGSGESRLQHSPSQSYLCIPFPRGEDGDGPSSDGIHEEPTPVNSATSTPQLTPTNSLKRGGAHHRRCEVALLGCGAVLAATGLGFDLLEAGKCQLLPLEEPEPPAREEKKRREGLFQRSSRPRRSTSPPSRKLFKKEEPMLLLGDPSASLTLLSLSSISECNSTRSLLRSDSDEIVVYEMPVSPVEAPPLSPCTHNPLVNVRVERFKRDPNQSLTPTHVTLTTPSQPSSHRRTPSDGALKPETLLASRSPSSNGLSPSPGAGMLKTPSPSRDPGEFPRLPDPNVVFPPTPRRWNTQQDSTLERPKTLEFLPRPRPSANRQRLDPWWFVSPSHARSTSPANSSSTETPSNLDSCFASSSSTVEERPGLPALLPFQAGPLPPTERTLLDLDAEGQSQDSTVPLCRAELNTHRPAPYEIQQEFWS
T2 sequence (P00533 whole entry): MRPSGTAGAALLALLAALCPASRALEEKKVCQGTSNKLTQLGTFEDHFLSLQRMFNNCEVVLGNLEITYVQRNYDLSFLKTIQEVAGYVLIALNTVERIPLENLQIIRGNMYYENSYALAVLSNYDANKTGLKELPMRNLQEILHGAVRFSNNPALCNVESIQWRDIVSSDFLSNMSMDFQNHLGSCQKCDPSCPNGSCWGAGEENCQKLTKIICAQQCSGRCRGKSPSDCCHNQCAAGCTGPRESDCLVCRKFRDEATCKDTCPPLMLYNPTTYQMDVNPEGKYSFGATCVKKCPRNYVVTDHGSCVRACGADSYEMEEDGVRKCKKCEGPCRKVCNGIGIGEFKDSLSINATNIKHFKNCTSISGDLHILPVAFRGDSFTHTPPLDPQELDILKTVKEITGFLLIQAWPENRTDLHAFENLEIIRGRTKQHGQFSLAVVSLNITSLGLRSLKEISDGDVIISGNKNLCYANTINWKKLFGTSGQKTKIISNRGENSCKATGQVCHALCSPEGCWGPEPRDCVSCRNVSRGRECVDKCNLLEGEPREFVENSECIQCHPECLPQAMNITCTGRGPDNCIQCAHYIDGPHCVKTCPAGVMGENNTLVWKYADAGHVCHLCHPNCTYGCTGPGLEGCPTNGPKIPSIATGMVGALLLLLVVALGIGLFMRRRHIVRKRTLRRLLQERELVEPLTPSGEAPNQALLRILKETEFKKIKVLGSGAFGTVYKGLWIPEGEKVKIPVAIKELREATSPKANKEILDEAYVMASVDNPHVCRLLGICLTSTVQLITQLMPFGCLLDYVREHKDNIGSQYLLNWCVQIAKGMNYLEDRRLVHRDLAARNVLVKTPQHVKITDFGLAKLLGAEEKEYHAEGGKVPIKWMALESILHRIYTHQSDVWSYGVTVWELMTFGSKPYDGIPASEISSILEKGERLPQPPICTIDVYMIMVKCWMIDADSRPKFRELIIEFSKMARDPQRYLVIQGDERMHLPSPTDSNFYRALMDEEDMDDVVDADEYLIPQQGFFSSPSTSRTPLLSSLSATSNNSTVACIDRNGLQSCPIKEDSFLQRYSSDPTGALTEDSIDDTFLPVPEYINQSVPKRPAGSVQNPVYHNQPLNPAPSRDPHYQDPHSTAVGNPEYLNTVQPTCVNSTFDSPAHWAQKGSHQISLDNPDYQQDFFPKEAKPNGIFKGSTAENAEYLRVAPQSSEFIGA
Sequence of Glycogen synthase kinase-3 beta (Homo sapiens) (P49841 whole entry, looked up): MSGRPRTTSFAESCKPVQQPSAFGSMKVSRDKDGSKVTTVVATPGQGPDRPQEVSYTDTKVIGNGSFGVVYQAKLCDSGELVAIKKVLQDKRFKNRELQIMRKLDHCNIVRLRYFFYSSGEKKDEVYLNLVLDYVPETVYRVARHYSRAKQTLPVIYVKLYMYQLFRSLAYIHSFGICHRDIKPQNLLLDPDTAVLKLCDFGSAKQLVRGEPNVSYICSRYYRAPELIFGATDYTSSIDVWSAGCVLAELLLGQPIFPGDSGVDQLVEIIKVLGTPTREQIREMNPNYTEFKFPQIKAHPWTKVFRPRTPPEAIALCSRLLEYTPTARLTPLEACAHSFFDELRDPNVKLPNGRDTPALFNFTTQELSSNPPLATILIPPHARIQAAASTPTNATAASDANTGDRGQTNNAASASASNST
Sequence of Mitogen-activated protein kinase 3 (Homo sapiens) (P27361 whole entry): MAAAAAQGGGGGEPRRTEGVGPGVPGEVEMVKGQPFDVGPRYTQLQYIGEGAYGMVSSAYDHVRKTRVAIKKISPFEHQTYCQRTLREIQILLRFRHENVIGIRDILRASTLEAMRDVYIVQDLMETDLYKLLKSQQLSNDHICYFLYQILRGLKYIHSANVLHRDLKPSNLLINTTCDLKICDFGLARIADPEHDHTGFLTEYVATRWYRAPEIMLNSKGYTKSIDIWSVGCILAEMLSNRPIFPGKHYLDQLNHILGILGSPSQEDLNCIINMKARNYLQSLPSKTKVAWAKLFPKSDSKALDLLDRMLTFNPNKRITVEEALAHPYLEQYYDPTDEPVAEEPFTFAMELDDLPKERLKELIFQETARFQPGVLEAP
Sequence of Serine/threonine-protein kinase PLK2 (Homo sapiens) (Q9NYY3 whole entry, looked up): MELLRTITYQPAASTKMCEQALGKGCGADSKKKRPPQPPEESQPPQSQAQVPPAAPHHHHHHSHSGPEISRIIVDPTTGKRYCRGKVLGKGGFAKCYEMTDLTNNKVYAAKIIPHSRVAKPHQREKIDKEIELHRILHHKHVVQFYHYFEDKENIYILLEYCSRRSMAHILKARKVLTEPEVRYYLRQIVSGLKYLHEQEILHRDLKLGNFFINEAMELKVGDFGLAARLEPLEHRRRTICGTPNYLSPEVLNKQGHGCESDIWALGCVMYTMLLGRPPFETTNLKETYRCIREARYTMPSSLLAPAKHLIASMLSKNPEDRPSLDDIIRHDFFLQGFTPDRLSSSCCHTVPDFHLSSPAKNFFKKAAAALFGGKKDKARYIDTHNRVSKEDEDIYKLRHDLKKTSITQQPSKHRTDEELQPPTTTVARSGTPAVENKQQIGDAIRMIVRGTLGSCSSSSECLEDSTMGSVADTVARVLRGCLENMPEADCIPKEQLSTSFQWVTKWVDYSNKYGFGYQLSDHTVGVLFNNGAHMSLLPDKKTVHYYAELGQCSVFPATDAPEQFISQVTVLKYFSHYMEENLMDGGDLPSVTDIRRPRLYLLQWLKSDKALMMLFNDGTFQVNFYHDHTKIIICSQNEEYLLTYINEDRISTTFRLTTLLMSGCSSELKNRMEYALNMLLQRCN

Structure (SMILES)	IC50 [1] [nM]	IC50 [2] [nM]	EC50 [3] [nM]	EC50 [4] [nM]	inhibition [6] [%]	inhibition [7] [%]	inhibition [8] [%]	inhibition [9] [%]	inhibition [10] [%]	inhibition [11] [%]	inhibition [12] [%]	inhibition [13] [%]	inhibition [14] [%]	inhibition [15] [%]	inhibition [16] [%]	inhibition [17] [%]	inhibition [18] [%]	inhibition [19] [%]	inhibition [20] [%]	inhibition [21] [%]	also measured
C=CC(=O)N1CCC2(CC1)CNC(=O)c1cc(-c3ccnc(Nc4ccccc4OC(C)C)n3)[nH]c12	1.3	1.2	8.8	562	34	4	8	100	88	70	22	88	14	48	38	32	40	50	12	5	Ratio EC50 (Homo sapiens): 64; bioavailability [5]: 11%; inhibition in vivo at 30 mg/kg (NCI-H1975 [22]): 60%; Activity [23]: Non-Toxic; Activity (NCI-H1975 [24]): Active
COc1ccccc1Nc1nccc(-c2cc3c([nH]2)C2(CCN(C(=O)C#CN(C)C)CC2)CNC3=O)n1	2.8	5.3	2180	–	–	–	–	–	–	–	–	–	–	–	–	–	–	–	–	–	–
C=CC(=O)N1CCC2(CC1)CNC(=O)c1cc(-c3nc(Nc4ccccc4OC)ncc3Cl)[nH]c12	0.8	0.9	3.1	277	–	–	–	–	–	–	–	–	–	–	–	–	–	–	–	–	Ratio EC50 (Homo sapiens): 89
C=CC(=O)N1CCC2(CC1)CNC(=O)c1cc(-c3ccnc(-c4cccc(OC)c4)n3)[nH]c12	9.6	32	2550	–	–	–	–	–	–	–	–	–	–	–	–	–	–	–	–	–	–
CC#CC(=O)Nc1cccc(-c2nccc(-c3cc4c([nH]3)C3(CCNCC3)CNC4=O)n2)c1	499	–	–	–	–	–	–	–	–	–	–	–	–	–	–	–	–	–	–	–	–
C=CC(=O)N1CCC2(CC1)CNC(=O)c1cc(-c3ccnc(-c4ccc5c(c4)OCO5)n3)[nH]c12	6.5	43	–	–	–	–	–	–	–	–	–	–	–	–	–	–	–	–	–	–	–
C=CC(=O)Nc1cc(Nc2nccc(-c3cn(C)c4ccccc34)n2)c(OC)cc1N(C)CCN(C)C [OSIMERTINIB]	–	–	–	–	6	7	5	0	5	0	57	12	31	0	71	78	0	0	0	4	bioavailability [5]: 45%; EC50 [25]: 15 nM
C=CC(=O)N1CCC2(CC1)CNC(=O)c1cc(-c3ccnc(Nc4ccccc4OC)n3)[nH]c12	0.9	0.4	40	308	83	18	71	99	81	73	85	85	3	72	75	91	69	80	79	30	Ratio EC50 (Homo sapiens): 7.7; bioavailability [5]: 3.2%
C=CC(=O)N1CCC2(CC1)CNC(=O)c1cc(-c3nc(Nc4ccccc4OC)ncc3C)[nH]c12	1.2	1.4	12	165	98	0	89	96	92	98	100	99	69	98	98	89	90	85	86	61	Ratio EC50 (Homo sapiens): 14; bioavailability [5]: 87%
C=CC(=O)N1CCC2(CC1)CNC(=O)c1cc(-c3ccnc(Nc4ccccc4OC)c3)[nH]c12	37	192	> 10000	–	75	18	12	100	79	46	16	34	0	80	1	80	81	87	7	14	–
